In ChEMBL document CHEMBL5236596, “Discovery and Optimization of N-Acyl-6-sulfonamide-tetrahydroquinoline Derivatives as Novel Non-Steroidal Selective Glucocorticoid Receptor Modulators” (J Med Chem, 2022):

Assays:
Glucocorticoid receptor [1] = target: T1, Glucocorticoid receptor (Homo sapiens, UniProt P04150); assay: Modulation of glucocorticoid receptor (unknown origin) transfected in human HeLa cells assessed as transrepression by measuring inhibition of PMA-induced AP-1 signalling incubated for 18 hrs by dual-luciferase reporter based assay; format: cell-based
T1 sequence (P04150 whole entry): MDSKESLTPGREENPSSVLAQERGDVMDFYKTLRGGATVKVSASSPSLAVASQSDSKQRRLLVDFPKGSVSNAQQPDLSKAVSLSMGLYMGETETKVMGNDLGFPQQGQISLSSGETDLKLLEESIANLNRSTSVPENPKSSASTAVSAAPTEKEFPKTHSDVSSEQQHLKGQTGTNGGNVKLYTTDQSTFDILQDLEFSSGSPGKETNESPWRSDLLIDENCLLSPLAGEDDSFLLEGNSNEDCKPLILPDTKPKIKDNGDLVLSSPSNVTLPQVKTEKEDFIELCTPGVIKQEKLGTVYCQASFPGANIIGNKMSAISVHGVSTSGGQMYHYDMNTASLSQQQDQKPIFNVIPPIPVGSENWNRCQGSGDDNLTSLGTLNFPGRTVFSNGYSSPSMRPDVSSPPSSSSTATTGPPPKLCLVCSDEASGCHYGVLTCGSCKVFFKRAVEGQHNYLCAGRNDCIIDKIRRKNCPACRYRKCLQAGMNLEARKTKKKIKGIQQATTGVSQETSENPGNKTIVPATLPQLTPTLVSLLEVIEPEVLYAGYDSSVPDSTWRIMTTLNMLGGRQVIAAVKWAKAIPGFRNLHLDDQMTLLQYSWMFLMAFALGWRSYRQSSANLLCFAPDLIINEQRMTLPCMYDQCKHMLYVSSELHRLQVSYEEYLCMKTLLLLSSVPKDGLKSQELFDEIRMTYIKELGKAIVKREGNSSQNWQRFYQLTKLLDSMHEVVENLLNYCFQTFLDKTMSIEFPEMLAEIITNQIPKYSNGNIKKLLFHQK

Glucocorticoid receptor [2] = target: T1, Glucocorticoid receptor; assay: Modulation of glucocorticoid receptor (unknown origin) transfected in human HeLa cells assessed as transrepression by measuring inhibition of TNF-alpha induced NF-kappaB signalling incubated for 18 hrs by dual-luciferase reporter based assay; format: cell-based
Glucocorticoid receptor [3] = target: T1, Glucocorticoid receptor; assay: Binding affinity to glucocorticoid receptor (unknown origin) by Lanthascreen TR-FRET competition binding assay

| IC50 (Glucocorticoid receptor [1]) [µM] | IC50 (Glucocorticoid receptor [2]) [nM] | IC50 (Glucocorticoid receptor [3]) [µM] | SMILES |
| --- | --- | --- | --- |
| 4.07 | 320 | 1.22 | O=C(c1ccco1)N1CCCc2cc(NS(=O)(=O)c3ccc4c(c3)CCCC4)ccc21 |
| 3.83 | 3990 | 1.92 | O=C(c1ccco1)N1CCCc2cc(NS(=O)(=O)c3ccccc3)ccc21 |
| 2.84 | 1790 | > 50 | CCCCS(=O)(=O)N(c1ccc2c(c1)CCCN2C(=O)c1ccco1)S(=O)(=O)CCCC |
| 3.69 | 1150 | 7.16 | CCCCc1ccc(S(=O)(=O)Nc2ccc3c(c2)CCCN3C(=O)c2ccco2)cc1 |
| 0.33 | 90 | > 50 | Cc1ccc(S(=O)(=O)N(c2ccc3c(c2)CCCN3C(=O)c2ccco2)S(=O)(=O)c2ccc(C)cc2)cc1 |
| 2.72 | 710 | > 50 | COC(=O)c1ccc(C(=O)N2CCCc3cc(NS(=O)(=O)c4cc(Cl)c(C)cc4OC)ccc32)cc1 |
| 1 | 260 | 0.59 | O=C(c1ccco1)N1CCCc2cc(NS(=O)(=O)c3ccc(Cl)c([N+](=O)[O-])c3)ccc21 |
| 1.32 | 450 | 3.43 | COc1ccc(C(=O)N2CCCc3cc(NS(=O)(=O)c4cc(Cl)c(C)cc4OC)ccc32)cc1OC |
| 3.33 | 300 | 2.22 | COc1cc(C)c(Cl)cc1S(=O)(=O)Nc1ccc2c(c1)CCCN2C(=O)c1ccc(C(F)(F)F)cc1 |
| > 10 | 4610 | > 50 | COc1cc(C)c(C)cc1S(=O)(=O)Nc1ccc2c(c1)CCCN2C(=O)C1CCCCC1 |
| 3.19 | 430 | > 50 | O=C(c1ccco1)N1CCCc2cc(N(S(=O)(=O)c3cc4ccccc4s3)S(=O)(=O)c3cc4ccccc4s3)ccc21 |
| 4.12 | 2450 | 19.7 | O=C(c1ccco1)N1CCCc2cc(NS(=O)(=O)c3ccc(Cl)c(C(F)(F)F)c3)ccc21 |
| > 50 | > 50000 |  | O=C(c1ccco1)N1CCCc2cc(N(S(=O)(=O)c3ccc(C(F)(F)F)cc3)S(=O)(=O)c3ccc(C(F)(F)F)cc3)ccc21 |
| 2.25 | 840 | > 50 | O=C(c1ccco1)N1CCCc2cc(N(S(=O)(=O)c3ccc(F)cc3)S(=O)(=O)c3ccc(F)cc3)ccc21 |
| 4.15 | 70 | 2.29 | O=C(c1ccco1)N1CCCc2cc(N(S(=O)(=O)c3ccc(-c4ccccc4)cc3)S(=O)(=O)c3ccc(-c4ccccc4)cc3)ccc21 |
| > 10 | > 10000 |  | NC(=O)c1ccc(S(=O)(=O)Nc2ccc3c(c2)CCCN3C(=O)c2ccco2)cc1 |
| 3.15 | > 10000 | > 30 | N#Cc1ccc(S(=O)(=O)N(c2ccc3c(c2)CCCN3C(=O)c2ccco2)S(=O)(=O)c2ccc(C#N)cc2)cc1 |
| 1.05 | 280 | > 50 | COc1ccc(S(=O)(=O)N(c2ccc3c(c2)CCCN3C(=O)c2ccco2)S(=O)(=O)c2ccc(OC)cc2)cc1 |
| 3.22 | 2620 | > 50 | O=C(c1ccco1)N1CCCc2cc(NS(=O)(=O)c3ccc(C(F)(F)F)cc3)ccc21 |
| > 25 | > 10000 |  | O=C(c1ccco1)N1CCCc2cc(N(S(=O)(=O)c3ccc(Br)cc3)S(=O)(=O)c3ccc(Br)cc3)ccc21 |
| 0.55 | 20 | > 50 | COc1cc(C)c(Cl)cc1S(=O)(=O)Nc1ccc2c(c1)CCCN2C(=O)c1ccncc1 |
| 7.22 | 810 | 0.09 | O=C(c1ccco1)N1CCCc2cc(NS(=O)(=O)c3ccc(-c4ccccc4)cc3)ccc21 |
| 4.91 | 900 | > 10 | COc1ccccc1S(=O)(=O)Nc1ccc2c(c1)CCCN2C(=O)c1ccco1 |
| > 10 | > 10000 |  | CC(C)(C)c1ccc(S(=O)(=O)N(c2ccc3c(c2)CCCN3C(=O)c2ccco2)S(=O)(=O)c2ccc(C(C)(C)C)cc2)cc1 |
| 1.14 | 890 | > 50 | COc1cc(C)c(C)cc1S(=O)(=O)Nc1ccc2c(c1)CCCN2C(=O)c1ccccc1 |
| > 10 | > 10000 |  | COc1cccc(Cl)c1S(=O)(=O)Nc1ccc2c(c1)CCCN2C(=O)c1ccco1 |
| > 10 | 100 | > 50 | CCCCc1ccc(C(=O)N2CCCc3cc(NS(=O)(=O)c4cc(Cl)c(C)cc4OC)ccc32)cc1 |
| 0.99 | 100 | 1.35 | COc1ccc(C)c(C)c1S(=O)(=O)Nc1ccc2c(c1)CCCN2C(=O)c1ccco1 |

| IC50 (Glucocorticoid receptor [1]) [µM] | IC50 (Glucocorticoid receptor [2]) [nM] | IC50 (Glucocorticoid receptor [3]) [µM] | SMILES |
| --- | --- | --- | --- |
| 9.26 | > 10000 | > 50 | O=C(c1ccco1)N1CCCc2cc(NS(=O)(=O)c3cccs3)ccc21 |
| 7.99 | 700 | > 50 | O=C(c1ccco1)N1CCCc2cc(N(S(=O)(=O)c3ccc4c(c3)CCCC4)S(=O)(=O)c3ccc4c(c3)CCCC4)ccc21 |
| 0.62 | 390 | > 50 | O=C(c1ccco1)N1CCCc2cc(N(S(=O)(=O)c3ccccc3)S(=O)(=O)c3ccccc3)ccc21 |
| 1.11 | 80 | > 50 | COc1cc(C)c(Cl)cc1S(=O)(=O)Nc1ccc2c(c1)CCCN2C(=O)c1ccc(C)cc1 |
| 5.62 | 1830 | > 50 | COc1ccc(S(=O)(=O)Nc2ccc3c(c2)CCCN3C(=O)c2ccco2)cc1 |
| > 10 | > 10000 |  | O=C(c1ccco1)N1CCCc2cc(NS(=O)(=O)c3ccc(F)cc3)ccc21 |
|  |  | 1.86 | C#CC1=C(SCC(=O)c2ccccc2)NC(C)=C(C(C)=O)C1c1cccs1 (stereo unspecified) |
| 4.27 | 3620 | > 50 | O=C(c1ccco1)N1CCCc2cc(NS(=O)(=O)c3ccc([N+](=O)[O-])cc3)ccc21 |
| 0.68 | 60 | > 50 | COc1cc(C)c(Cl)cc1S(=O)(=O)Nc1ccc2c(c1)N(C(=O)c1ccco1)CCC2 |
| > 50 | > 50000 |  | CCS(=O)(=O)N(c1ccc2c(c1)CCCN2C(=O)c1ccco1)S(=O)(=O)CC |
| 3.96 | 450 | > 50 | O=C(c1ccco1)N1CCCc2cc(N(S(=O)(=O)c3ccc(Cl)cc3)S(=O)(=O)c3ccc(Cl)cc3)ccc21 |
| > 10 | > 10000 |  | COc1cc(C)c(Cl)cc1S(=O)(=O)Nc1ccc2c(c1)CCCN2C(=O)c1ccc(C)cc1F |
| > 50 | > 50000 |  | O=C(c1ccco1)N1CCCc2cc(N(S(=O)(=O)Cc3ccccc3)S(=O)(=O)Cc3ccccc3)ccc21 |
| > 10 | > 50000 |  | COC(=O)c1ccc(S(=O)(=O)N(c2ccc3c(c2)CCCN3C(=O)c2ccco2)S(=O)(=O)c2ccc(C(=O)OC)cc2)cc1 |
| 1.42 | 67 | > 50 | COc1ccc(C(=O)N2CCCc3cc(NS(=O)(=O)c4cc(Cl)c(C)cc4OC)ccc32)cc1 |
| 1.67 | 210 | > 50 | CN(C)c1cccc2c(S(=O)(=O)Nc3ccc4c(c3)CCCN4C(=O)c3ccco3)cccc12 |
| 2.86 | 1050 | > 50 | O=C(c1ccco1)N1CCCc2cc(N(S(=O)(=O)c3cccs3)S(=O)(=O)c3cccs3)ccc21 |
| 1.36 | 170 | 1.14 | COc1cc(C)c(Cl)cc1S(=O)(=O)Nc1ccc2c(c1)CCCN2C(=O)c1cccs1 |
| 1.15 | 180 | 0.47 | CC(C)(C)c1ccc(S(=O)(=O)Nc2ccc3c(c2)CCCN3C(=O)c2ccco2)cc1 |
| 2.08 | 190 | 1.12 | O=C(c1ccco1)N1CCCc2cc(NS(=O)(=O)c3ccc4ccccc4c3)ccc21 |
| 1.95 | 330 | 3.28 | COc1cc(C)c(Cl)cc1S(=O)(=O)Nc1ccc2c(c1)CCCN2C(=O)c1ccc2ccccc2c1 |
| > 10 | 50 | 5.02 | COc1cc(C)c(Cl)cc1S(=O)(=O)Nc1ccc2c(c1)CCCN2C(=O)c1ccco1 |
| 5.04 | 1320 | 1.97 | O=C(c1ccco1)N1CCCc2cc(NS(=O)(=O)c3ccc4c(c3)CCO4)ccc21 |
| 1.17 | 130 | > 50 | COc1cc(C)c(Cl)cc1S(=O)(=O)Nc1ccc2c(c1)CCCN2C(=O)c1ncccn1 |
| 1.81 | 100 | 2.07 | COc1cc(C)c(Cl)cc1S(=O)(=O)Nc1ccc2c(c1)CCCN2C(=O)c1ccc(Cl)cc1 |
| > 10 | > 10000 |  | N#Cc1ccc(S(=O)(=O)Nc2ccc3c(c2)CCCN3C(=O)c2ccco2)cc1 |
| > 50 | > 10000 |  | O=C(c1ccco1)N1CCCc2cc(N(S(=O)(=O)c3cccnc3)S(=O)(=O)c3cccnc3)ccc21 |
